From PubChem BioAssay AID270 (DTP/NCI, 2004)
“And” between values parts separate entries of the source, which are not always exact repeats. Equal values may be shown once. Results filed as inconclusive are left out.

Tested on: BDF1 mice, s.c. Lewis lung carcinoma, T/C %
Assay: NCI In Vivo Anticancer Drug Screen. Data for tumor model Lewis Lung Carcinoma (subcutaneous) in B6D2F1 (BDF1) mice
Method: The antitumor activity of compounds was measured in mice bearing transplantable tumors. Survival or tumor size were measured and the results are expressed as the measurement made in the treated group (T) divided by the measurement made in the vehicle treated control group (C). The tumor model used in this assay is Lewis Lung Carcinoma (subcutaneous) in B6D2F1 (BDF1) mice

[1] = endpoint: mean tumor weight, dose: 125.0 mg/kg/injection, schedule: Q01DX011 (ip), vehicle: saline, higher = larger tumour
[2] = endpoint: median survival time, dose: 6.25 mg/kg/injection, schedule: Q01DX009 (ip), vehicle: Klucel (hydroxypropylcellulose) (HPC), higher = longer survival
[3] = endpoint: median survival time, dose: 0.25 mg/kg/injection, schedule: Q01DX009 (ip), vehicle: saline, higher = longer survival
[4] = endpoint: mean tumor weight, dose: 0.12 mg/kg/injection, schedule: Q01DX011 (ip), vehicle: saline, higher = larger tumour

O=C(O)C1(NO)CCCC1
T/C (endpoint: mean tumor weight, dose: 55.0 mg/kg/injection, schedule: Q01DX011 (ip), vehicle: saline, higher = larger tumour): 73 % of control | T/C (endpoint: mean tumor weight, dose: 83.0 mg/kg/injection, schedule: Q01DX011 (ip), vehicle: saline, higher = larger tumour): 29 % of control | T/C [1]: 27 % of control

CC(C)CCC[C@@H](C)[C@H]1CC[C@H]2[C@@H]3CC=C4C[C@@H](OC(=O)Cc5ccc(N(CCCl)CCCl)cc5)CC[C@]4(C)[C@H]3CC[C@]12C
T/C (endpoint: mean tumor weight, dose: 50.0 mg/kg/injection, schedule: Q01DX011 (sc), vehicle: steriod suspending solution, higher = larger tumour): 84 % of control | T/C (endpoint: mean tumor weight, dose: 100.0 mg/kg/injection, schedule: Q01DX011 (sc), vehicle: steriod suspending solution, higher = larger tumour): 76 % of control | T/C (endpoint: mean tumor weight, dose: 200.0 mg/kg/injection, schedule: Q01DX011 (sc), vehicle: steriod suspending solution, higher = larger tumour): 78 % of control | T/C (endpoint: mean tumor weight, dose: 400.0 mg/kg/injection, schedule: Q01DX011 (sc), vehicle: steriod suspending solution, higher = larger tumour): 57 % of control

CCCNC(=NC)c1ccc(NC(=O)c2ccc(C(=O)Nc3ccc(C(=NC)NCCC)cc3)cc2)cc1
T/C (endpoint: mean tumor weight, dose: 2.5 mg/kg/injection, schedule: Q01DX011 (ip), vehicle: other, higher = larger tumour): 124 % of control | T/C (endpoint: mean tumor weight, dose: 5.0 mg/kg/injection, schedule: Q01DX011 (ip), vehicle: other, higher = larger tumour): 56 % of control

C=CCn1c(=O)n(CC=C)c(=O)n(CC=C)c1=O
T/C (endpoint: mean tumor weight, dose: 15.0 mg/kg/injection, schedule: Q01DX011 (ip), vehicle: carboxymethylcellulose (CMC), higher = larger tumour): 82 % of control | T/C (endpoint: mean tumor weight, dose: 120.0 mg/kg/injection, schedule: Q01DX011 (ip), vehicle: carboxymethylcellulose (CMC), higher = larger tumour): 112 % of control | T/C (endpoint: mean tumor weight, dose: 240.0 mg/kg/injection, schedule: Q01DX011 (ip), vehicle: carboxymethylcellulose (CMC), higher = larger tumour): 67 % of control

O=c1[nH]cnc2nc[nH]c12
T/C (endpoint: mean tumor weight, dose: 62.5 mg/kg/injection, schedule: Q01DX011 (ip), vehicle: saline, higher = larger tumour): 121 % of control | T/C [1]: 108 % of control | T/C (endpoint: mean tumor weight, dose: 250.0 mg/kg/injection, schedule: Q01DX011 (ip), vehicle: saline, higher = larger tumour): 107 % of control | T/C (endpoint: mean tumor weight, dose: 500.0 mg/kg/injection, schedule: Q01DX011 (ip), vehicle: saline, higher = larger tumour): 76 % of control

CC(=O)[O][Hg][c]1c(C)c(C)c(C)c(C)c1C
T/C (endpoint: median survival time, dose: 0.62 mg/kg/injection, schedule: Q01DX009 (ip), vehicle: Klucel (hydroxypropylcellulose) (HPC), higher = longer survival): 93 % of control | T/C (endpoint: median survival time, dose: 1.25 mg/kg/injection, schedule: Q01DX009 (ip), vehicle: Klucel (hydroxypropylcellulose) (HPC), higher = longer survival): 93 % of control | T/C (endpoint: median survival time, dose: 2.5 mg/kg/injection, schedule: Q01DX009 (ip), vehicle: Klucel (hydroxypropylcellulose) (HPC), higher = longer survival): 100 % of control | T/C (endpoint: median survival time, dose: 5.0 mg/kg/injection, schedule: Q01DX009 (ip), vehicle: Klucel (hydroxypropylcellulose) (HPC), higher = longer survival): 105 % of control | T/C (endpoint: median survival time, dose: 6.0 mg/kg/injection, schedule: Q01DX009 (ip), vehicle: Klucel (hydroxypropylcellulose) (HPC), higher = longer survival): 92 % of control | T/C [2]: 92 % of control

O=NN(CCF)C(=O)NC1CCS(=O)(=O)CC1
T/C (endpoint: median survival time, dose: 9.0 mg/kg/injection, schedule: Q01DX001 (ip), vehicle: other, higher = longer survival): 120 % of control | T/C (endpoint: median survival time, dose: 14.0 mg/kg/injection, schedule: Q01DX001 (ip), vehicle: other, higher = longer survival): 109 % of control | T/C (endpoint: median survival time, dose: 21.0 mg/kg/injection, schedule: Q01DX001 (ip), vehicle: other, higher = longer survival): 121 % of control | T/C (endpoint: median survival time, dose: 32.0 mg/kg/injection, schedule: Q01DX001 (ip), vehicle: other, higher = longer survival): 107 % of control | T/C (endpoint: median tumor weight (est.), dose: 11.0 mg/kg/injection, schedule: Q01DX001 (ip), vehicle: other, higher = larger tumour): 65 % of control | T/C (endpoint: median tumor weight (est.), dose: 21.0 mg/kg/injection, schedule: Q01DX001 (ip), vehicle: other, higher = larger tumour): 65 % of control | T/C (endpoint: median tumor weight (est.), dose: 32.0 mg/kg/injection, schedule: Q01DX001 (ip), vehicle: other, higher = larger tumour): 10 % of control

COC1=NCN=C2SC=C(N)N=C12
T/C (endpoint: median survival time, dose: 12.5 mg/kg/injection, schedule: Q01DX009 (ip), vehicle: saline, higher = longer survival): 107 % of control | T/C (endpoint: median survival time, dose: 25.0 mg/kg/injection, schedule: Q01DX009 (ip), vehicle: saline, higher = longer survival): 122 % of control | T/C (endpoint: median survival time, dose: 50.0 mg/kg/injection, schedule: Q01DX009 (ip), vehicle: saline, higher = longer survival): 110 % of control

CC(C)=CCC/C(C)=C/CNCCc1c[nH]c2ccccc12
T/C [2]: 100 % of control | T/C (endpoint: median survival time, dose: 12.5 mg/kg/injection, schedule: Q01DX009 (ip), vehicle: Klucel (hydroxypropylcellulose) (HPC), higher = longer survival): 101 % of control | T/C (endpoint: median survival time, dose: 25.0 mg/kg/injection, schedule: Q01DX009 (ip), vehicle: Klucel (hydroxypropylcellulose) (HPC), higher = longer survival): 97 % of control

COc1cccc2c1C(=O)c1c(O)c3c(c(O)c1C2=O)C[C@@](O)(C(=O)CO)C[C@@H]3OC1CC(N)C(O)C(C)O1 (some centres not stated)
T/C (endpoint: median survival time, dose: 0.03 mg/kg/injection, schedule: Q01DX009 (ip), vehicle: saline, higher = longer survival): 88 % of control | T/C (endpoint: median survival time, dose: 0.06 mg/kg/injection, schedule: Q01DX009 (ip), vehicle: saline, higher = longer survival): 88 % of control | T/C (endpoint: median survival time, dose: 0.12 mg/kg/injection, schedule: Q01DX009 (ip), vehicle: saline, higher = longer survival): 100 % of control | T/C [3]: 105 % of control | T/C (endpoint: median survival time, dose: 0.25 mg/kg/injection, schedule: Q08HX024 (ip), vehicle: saline, higher = longer survival): 113 % of control | T/C (endpoint: median survival time, dose: 0.5 mg/kg/injection, schedule: Q08HX024 (ip), vehicle: saline, higher = longer survival): 182 % of control | T/C (endpoint: median survival time, dose: 1.0 mg/kg/injection, schedule: Q08HX024 (ip), vehicle: saline, higher = longer survival): 89 % of control | T/C (endpoint: median survival time, dose: 1.92 mg/kg/injection, schedule: Q04DX003 (ip), vehicle: saline, higher = longer survival): 104 % of control and 106 % of control | T/C (endpoint: median survival time, dose: 1.92 mg/kg/injection, schedule: Q04DX003 (iv), vehicle: saline, higher = longer survival): 93 % of control and 108 % of control | T/C (endpoint: median survival time, dose: 2.74 mg/kg/injection, schedule: Q04DX003 (ip), vehicle: saline, higher = longer survival): 99 % of control and 103 % of control | T/C (endpoint: median survival time, dose: 2.74 mg/kg/injection, schedule: Q04DX003 (iv), vehicle: saline, higher = longer survival): 99 % of control and 111 % of control | T/C (endpoint: median survival time, dose: 3.36 mg/kg/injection, schedule: Q01DX001 (ip), vehicle: saline, higher = longer survival): 101 % of control and 102 % of control | T/C (endpoint: median survival time, dose: 3.36 mg/kg/injection, schedule: Q01DX001 (iv), vehicle: saline, higher = longer survival): 101 % of control and 105 % of control | T/C (endpoint: median survival time, dose: 3.9 mg/kg/injection, schedule: Q04DX003 (ip), vehicle: saline, higher = longer survival): 105 % of control and 123 % of control | T/C (endpoint: median survival time, dose: 3.9 mg/kg/injection, schedule: Q04DX003 (iv), vehicle: saline, higher = longer survival): 108 % of control and 113 % of control | T/C (endpoint: median survival time, dose: 4.8 mg/kg/injection, schedule: Q01DX001 (ip), vehicle: saline, higher = longer survival): 98 % of control and 102 % of control | T/C (endpoint: median survival time, dose: 4.8 mg/kg/injection, schedule: Q01DX001 (iv), vehicle: saline, higher = longer survival): 90 % of control and 102 % of control | T/C (endpoint: median survival time, dose: 5.6 mg/kg/injection, schedule: Q04DX003 (iv), vehicle: saline, higher = longer survival): 105 % of control | T/C (endpoint: median survival time, dose: 6.86 mg/kg/injection, schedule: Q01DX001 (ip), vehicle: saline, higher = longer survival): 117 % of control | T/C (endpoint: median survival time, dose: 6.86 mg/kg/injection, schedule: Q01DX001 (iv), vehicle: saline, higher = longer survival): 111 % of control and 114 % of control | T/C (endpoint: median survival time, dose: 9.8 mg/kg/injection, schedule: Q01DX001 (iv), vehicle: saline, higher = longer survival): 105 % of control | T/C (endpoint: median survival time, dose: 14.0 mg/kg/injection, schedule: Q01DX001 (ip), vehicle: saline, higher = longer survival): 99 % of control

CC1=C2C(=CC(C)(C)[C@@H]2O)C(=O)[C@](C)(O)C12CC2
T/C [4]: 61 % of control | T/C (endpoint: mean tumor weight, dose: 0.18 mg/kg/injection, schedule: Q01DX011 (ip), vehicle: saline, higher = larger tumour): 92 % of control | T/C (endpoint: mean tumor weight, dose: 0.26 mg/kg/injection, schedule: Q01DX011 (ip), vehicle: saline, higher = larger tumour): 73 % of control | T/C (endpoint: mean tumor weight, dose: 0.4 mg/kg/injection, schedule: Q01DX011 (ip), vehicle: saline, higher = larger tumour): 76 % of control | T/C (endpoint: mean tumor weight, dose: 0.6 mg/kg/injection, schedule: Q01DX011 (ip), vehicle: saline, higher = larger tumour): 19 % of control

Oc1cc2c3c(c1)c1cc4c(cc1c[n+]3CC2)OCO4
T/C (endpoint: median survival time, dose: 3.13 mg/kg/injection, schedule: Q01DX009 (ip), vehicle: water, higher = longer survival): 109 % of control | T/C (endpoint: median survival time, dose: 6.25 mg/kg/injection, schedule: Q01DX009 (ip), vehicle: water, higher = longer survival): 96 % of control | T/C (endpoint: median survival time, dose: 12.5 mg/kg/injection, schedule: Q01DX009 (ip), vehicle: water, higher = longer survival): 122 % of control | T/C (endpoint: median survival time, dose: 25.0 mg/kg/injection, schedule: Q01DX009 (ip), vehicle: water, higher = longer survival): 96 % of control

COc1cc2c(c(OC)c1OC)-c1ccc(OC)c(=O)cc1[C@@H](NC(C)=O)CC2
T/C (endpoint: mean tumor weight, dose: 0.06 mg/kg/injection, schedule: Q01DX011 (ip), vehicle: saline, higher = larger tumour): 65 % of control | T/C [4]: 61 % of control | T/C (endpoint: mean tumor weight, dose: 0.25 mg/kg/injection, schedule: Q01DX011 (ip), vehicle: saline, higher = larger tumour): 46 % of control | T/C (endpoint: median survival time, dose: 0.13 mg/kg/injection, schedule: Q01DX009 (ip), vehicle: saline, higher = longer survival): 100 % of control | T/C [3]: 98 % of control | T/C (endpoint: median survival time, dose: 0.5 mg/kg/injection, schedule: Q01DX009 (ip), vehicle: saline, higher = longer survival): 99 % of control | T/C (endpoint: median survival time, dose: 63.0 micrograms/kg/injection, schedule: Q01DX009 (ip), vehicle: saline, higher = longer survival): 103 % of control | T/C (endpoint: median survival time, dose: 125.0 micrograms/kg/injection, schedule: Q01DX009 (ip), vehicle: saline, higher = longer survival): 106 % of control | T/C (endpoint: median survival time, dose: 250.0 micrograms/kg/injection, schedule: Q01DX009 (ip), vehicle: saline, higher = longer survival): 108 % of control | T/C (endpoint: median survival time, dose: 500.0 micrograms/kg/injection, schedule: Q01DX009 (ip), vehicle: saline, higher = longer survival): 108 % of control | T/C (endpoint: median survival time, dose: 1000.0 micrograms/kg/injection, schedule: Q01DX009 (ip), vehicle: saline, higher = longer survival): 91 % of control
